# US9845327B2, “Treatment of proteinopathies” (THE GENERAL HOSPITAL CORPORATION, priority 2011, dated 2017)
# What was measured:
# GCase polypeptide = target: T1, GCase polypeptide (Homo sapiens, UniProt P04062); test: GCase polypeptide levels and post-ER forms by western blot in human iPS dopamine neurons; type: cell-based; settings: wild-type neurons from an unaffected control; 100 μM IFG for 5 days followed by 1 day wash-out
# T1 construct: endogenous in cells; host or cells: human iPS-derived midbrain dopamine neurons (healthy control; PD patient with SNCA triplication, Coriell ND27760)
# T1 sequence (P04062 40-536): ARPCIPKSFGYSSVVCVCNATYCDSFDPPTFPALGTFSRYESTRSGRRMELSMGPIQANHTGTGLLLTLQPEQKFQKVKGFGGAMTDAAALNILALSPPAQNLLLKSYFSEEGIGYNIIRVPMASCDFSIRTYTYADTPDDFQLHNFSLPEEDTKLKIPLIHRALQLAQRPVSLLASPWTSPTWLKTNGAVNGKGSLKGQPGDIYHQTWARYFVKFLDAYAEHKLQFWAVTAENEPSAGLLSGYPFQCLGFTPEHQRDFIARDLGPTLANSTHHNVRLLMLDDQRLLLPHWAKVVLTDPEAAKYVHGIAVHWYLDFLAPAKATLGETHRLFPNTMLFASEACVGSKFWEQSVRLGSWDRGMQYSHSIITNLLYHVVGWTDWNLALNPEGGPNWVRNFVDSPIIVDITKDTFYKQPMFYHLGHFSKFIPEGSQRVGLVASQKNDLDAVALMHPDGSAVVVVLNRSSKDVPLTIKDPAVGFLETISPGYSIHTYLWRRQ
# Protocol: (§1) In this Example, human dopamine neurons generated from iPS cells of an unaffected control were treated with a pharmacological chaperone activator of GCase polypeptide, isofagomine (IFG). […] Treatment of wild-type neurons with 100 μM IFG for 5 days followed by 1 day wash-out increased the levels of GCase polypeptide (FIGS. 15A and 15B). This increase was likely due to the fact that wild-type GCase polypeptide was occasionally misfolded in the ER and degraded (about 30% of the total made in the ER), and IFG appeared to also stabilize the wild-type misfolded forms.
# It was also shown in this Example that treatment with the GCase polypeptide activator increased the levels of total GCase protein and increased the post-ER forms, indicating enhancement of flux to the lysosome (FIG. 19B).
# In this Example, the effect of combining the GCase polypeptide pharmacological chaperone IFG with the antioxidant n-acetyl-cysteine (NAC) on GCase polypeptide maturation in PD iPS neurons was tested. Neurons were treated with either IFG, NAC, or IFG and NAC together, and GCase polypeptide maturation was analyzed by western blot.
# Most materials for SDS-PAGE were obtained from Invitrogen (NuPAGE system). Protein lysates were boiled in sample buffer (20 mM Tris, 1% (v/v) glycerol, 180 mM β-mercaptoethanol, 0.003% (w/v) bromophenol blue, 2% (w/v) SDS, pH 6.8), resolved on 4%-12% Bis-Tris polyacrylamide precast gels in a MOPS-SDS running buffer, or 4%-12% Tris-Glycine gels. 10% Tris-Glycine gels were utilized for some GCase polypeptide western blot's (FIGS. 13B, 13D, and 13E, and FIGS. 14C and 14F). […] Blots were blocked in Odyssey blocking buffer (Li-Cor biosciences) containing 0.05% Tween, or 5% non-fat dry milk in TBS-T 0.2%, followed by incubation with primary antibodies (see above for dilutions), and detected with anti-mouse or -rabbit IgG conjugated to IRDye 680 or 800 (1:10,000, Li-Cor biosciences). […] Any nonspecific bands detected were not included in densitometric analyses. […]
# [1] = tested on: human dopamine neurons generated from iPS cells; test: Proteolysis by radioactive pulse-chase in human iPS dopamine neurons; type: cell-based; settings: wild-type neurons; 100 μM IFG 5 days, 1 day wash-out
# Protocol: as §1
# In this Example, it was further determined if the effects discussed above could also be replicated with non-native site binding compounds that can act as allosteric activators of GCase polypeptide, and therefore unlike IFG, would not require a washout to activate GCase polypeptide. […]
# Proteolysis of long-lived proteins was determined by radioactive pulse-chase using ^3H-leucine. […] Samples were centrifuged at 20,000×g for 20 min, 4° C., and the radioactivity was measured in 5 ml of scintillation cocktail using a Beckman LS 1701 liquid scintillation counter (Beckman Instruments). Precipitated protein pellets were extracted in 200 μl of Na deoxycholate, 0.1 M NaOH, and radioactivity was determined. Percent proteolysis was calculated as described in detail elsewhere (Kaushik et al. Methods Enzymol. 452: 297, 2009). […]
structure (smiles),measurement,setting,value
"OC[C@H]1CNC[C@@H](O)[C@@H]1O [IFG, isofagomine]",levels of GCase polypeptide,GCase polypeptide,increased
same,"Proteolysis rate, fold increase compared to controls",[1],3 fold
